For the test, the target named is T1, human factor Xa (Homo sapiens, UniProt P00742).
T1 construct: purchased Enzyme Research Laboratories
Put plainly: Factor Xa chromogenic peptide substrate assay (S-2222). The format is biochemical.

The values below come from patent US7550487B2, “Pyrrolidine-3,4-dicarboxamide derivatives” (Hoffmann-La Roche Inc., priority 2004, dated 2009).

What is called Ki is a dissociation constant, usually derived from enzyme kinetics or from competition with a known ligand.

T1 sequence (P00742 235-488 limits assumed): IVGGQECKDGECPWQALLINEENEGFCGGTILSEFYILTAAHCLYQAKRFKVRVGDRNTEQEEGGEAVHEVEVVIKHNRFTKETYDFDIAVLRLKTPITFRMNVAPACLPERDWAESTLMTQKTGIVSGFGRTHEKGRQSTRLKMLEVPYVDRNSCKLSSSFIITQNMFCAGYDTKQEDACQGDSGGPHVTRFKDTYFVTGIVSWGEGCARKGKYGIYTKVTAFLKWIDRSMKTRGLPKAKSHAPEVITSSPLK
T1 sequence (P00742 41-179 partner limits assumed): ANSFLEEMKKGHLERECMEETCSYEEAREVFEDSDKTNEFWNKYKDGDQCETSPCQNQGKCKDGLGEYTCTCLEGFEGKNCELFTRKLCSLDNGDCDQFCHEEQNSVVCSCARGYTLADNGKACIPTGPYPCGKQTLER
Procedure: Factor Xa activity was measured spectrophotometrically in microtiter plates in a final volume of 150 μl using the following conditions: Inhibition of human factor Xa (Enzyme Research Laboratories) was tested at an enzyme concentration of 3 nM using the chromogenic substrate S-2222 (Chromogenix AB, Mölndal, Sweden) at 200 nM. The reaction kinetics of the enzyme and the substrate were linear with both time and the enzyme concentration. The inhibitors were dissolved in DMSO and tested at various concentrations up to 100 μM. The inhibitors were diluted using HNPT buffer consisting of HEPES 100 mM, NaCl 140 mM, PEG 6000 0.1% and Tween 80 0.02%, pH 7.8. […] The velocity of the reaction was determined by the autoreader from the slope of the linear regression fit to 7 time points (1 minute). The initial velocity for each inhibitor concentration was determined by the slope of at least 4 time points in the linear phase by a linear regression fit (mOD/min^2). Apparent dissociation constants Ki were calculated according to Cheng and Prusoff [Cheng, Y. C.; Prusoff, W. H. Relationship between the inhibition constant (Ki) and the concentration of the inhibitor that causes 50 percent inhibition (IC50) of an enzyme reaction. Biochem. Pharmacol. 1973, 22, 3099-3108.] based on the IC50 and the respective Km, determined previously (Ki=IC50/(1+S/Km)). […]

As for `CNC(=O)CN1C[C@H](C(=O)Nc2ccc(Cl)cc2)[C@@H](C(=O)Nc2ccc(-n3ccccc3=O)cc2F)C1` [Example 26, (3R,4R)-1-Methylcarbamoylmethyl-pyrrolidine-3,4-dicarboxylic acid 3-[(4-chloro-phenyl)-amide] 4-{[2-fluoro-4-(2-oxo-2H-pyridin-1-yl)-phenyl]-amide}], affinity was put at a Ki of 22 nM.
